From patent publication US20120252773A1, “Method and composition for inhibiting cell proliferation and angiogenesis” (priority 2005, published 2012)
pIC50: −log10 of the molar value.

Assays:
[1] = system: Human Dermal Microvascular Endothelial Cells (HDMVEC); test: Growth inhibition of HDMVEC cells, MTT, 7 days; type: cell-based; details: Endothelial cell, HDMVEC growth, procedures of Example 3, read-out: Inhibitory Effect (IC50 Value)
Experimental: To measure the inhibitory activity of (2) on growth of HDMVEC cells (Clonetics, San Diego, Calif.), 2,000 cells were seeded in each well of a 96-well plate in […] of EGM medium (Clonetics) supplemented with 5% fetal bovine serum (Sigma). The plate was incubated at 37° C. in a tissue culture incubator for 24 h, and then various concentrations of (2) dissolved in EGM were added to each well in 5-10 μl aliquots. Four wells were used for each concentration. Medium in each well was renewed with fresh test solution added every other day. After 7 days of culture, the viable cells were measured using reagents from an MTT kit (Promega Corporation, Madison, Wis.), using instructions provided by the supplier. The number of viable cells in treated wells relative to those in control wells gave the percentage of inhibition.
The procedures of Example 3 were carried out to evaluate the inhibitory effect of various compounds of the invention on the growth of HDMVEC cells (Clonetics, San Diego, Calif.).

[2] = system: HIF-1α protein in PC-3 prostate cancer cells; test: HIF-1α protein expression by immunoblotting, PC-3 cells; type: cell-based, human; details: PC-3, same hypoxic/anoxic conditions as for (2)
Experimental: (§1) Hypoxia experiments were performed in either of two ways. To produce a very low ambient oxygen concentration (effectively anoxia), we used a protocol in which cells were incubated in a 5% CO2-air atmosphere at 37° C. overnight and then placed in aluminum gas-exchange chambers maintained at 37° C. (Laderoute K R et al. Mol Cell Biol 22: 2515-2523, (2002); Laderoute K R et al. Mol Cell Biol 24: 4128-4137, (2004)). The chambers containing the cells were then placed in a 37° C. circulating water bath and the original atmosphere was repeatedly exchanged with 5% CO2-95% N2 using a manifold equipped with a vacuum pump and a gas cylinder. Atmospheric oxygen partial pressure (pO2) values of less than or equal to 0.01% (relative to air at pO2 of about 21%) can be achieved inside the chambers using this system. Following various hypoxic exposures, the chambers were opened an anaerobic glove box (Bactron X, Sheldon Manufacturing Inc., Cornelius, Oreg.; attached to a cylinder containing 5% CO2-95% N2) to prepare cell lysates without significant reoxygenation. All manipulations of hypoxic cells were performed in the anaerobic glove box. Atmospheric oxygen levels in both the chambers and the glove box have been measured and calibrated using a polarographic oxygen electrode (Oxygen Sensors, Inc., Norristown, Pa.). Hypoxia experiments involving a pO2 of 1% were performed by equilibrating the glove box with an atmosphere of 1% O2 5% CO2 95% N2 held at 37° C. with a circulating fan. Cells were incubated inside a humidified space in the glove box and the medium on the cells was gently and continually agitated by using a rotary shaker. For these experiments, we used RAW 264.7 immortalized mouse macrophages as normal control cells, PC-3 prostate cancer cells, and MDA-MB-231 breast cancer cells, all available from ATCC.
(§2) We used immunoblotting to evaluate the experiments. Nuclear lysates were used to detect HIF-1α protein by immunoblotting (Murphy B J et al. Biochem Biophys Res Commun (In Press): 2005). Briefly, cells were placed on ice in air or on Super Ice® cold packs in the anaerobic glove box and the medium was removed. […] After spinning at 9,000×g for 5 min at 4° C., the protein concentrations of the supernatants were determined by using a bicinchoninic acid assay (Pierce Biotechnology). […] Primary antibody binding was detected and visualized by using the ECL Plus Western Blotting Detection System (Amersham Pharmacia Biotech) according to the supplier's instructions. HIF-1α protein was detected by using an anti-HIF-1α monoclonal antibody (Novus Biologicals, Cat. No. NB100-123; diluted 1:500) and a horseradish peroxidase-conjugated anti-mouse IgG secondary antibody (Santa Cruz Biotechnology, Cat. No. sc-2062; diluted 1:20,000). […]

[3] = system: HIF-1α protein in MDA-MB-231 human breast carcinoma cells; test: HIF-1α protein expression by immunoblotting, MDA-MB-231 cells; type: cell-based; details: MDA-MB-231, same hypoxic/anoxic conditions as for (2)
Experimental: as §1, with “Hypoxia experiments involving a pO2 of 1% were performed by equilibrating the glove box with an atmosphere of 1% O2 5% CO2 95% N2 held at 37° C. with a circulating fan. Cells were incubated inside a humidified space in the glove box and the medium on the cells was gently and continually agitated by using a rotary shaker. For these experiments, we used RAW 264.7 immortalized mouse macrophages as normal control cells, PC-3 prostate cancer cells, and MDA-MB-231 breast cancer cells, all available from ATCC.” left out
as §2, with “experiments.” for “experiments. Nuclear lysates were used to detect HIF-1α protein by immunoblotting (Murphy B J et al. Biochem Biophys Res Commun (In Press): 2005). Briefly, cells were placed on ice in air or on Super Ice® cold packs in the anaerobic glove box and the medium was removed.”

[4] = system: human endometrial Ishikawa cells; test: Estrogenic activity, alkaline phosphatase, Ishikawa cell-based assay; details: 72 hours
Experimental: Ishikawa cell based assays were run in parallel on human endometrial Ishikawa cells treated with compound (2) or with 2-methoxyestradiol. 2-Methoxyestradiol is a compound reported in the literature as an anti-angiogenic agent. Cells were cultured in 96-well plates for 48 hours in estrogen- and phenol red-free medium (DMEM/Hamm's F12 medium) containing 5% fetal bovine serum stripped of endogenous estrogens with dextran coated charcoal (Sigma). Compound (2) or other test compounds were then added to the cells and culturing was continued for an additional 72 hours. To the control cells (no (2)), 10^−9 M of […] was added. At the end of 72 hours, alkaline phosphatase activity was measured by adding 5 mM p-nitrophenyl phosphate, 0.24 mM MgCl2, and 1 M diethanolamine (pH 9.8) to the cells while the 96-well plates were kept on ice. The plates were then warmed to room temperature, and the yellow color from the production of p-nitrophenol was measured after 2-3 hours using an ELISA plate reader at a wavelength of 405 nm. The estrogenic activity was defined as the alkaline phosphatase activity stimulated by the test compounds alone as a percentage of that stimulated by estradiol at 10^−9 M. Stimulation by estradiol at 10^−9 M was taken as 100%.

Row | Compound | pIC50 [1] | also measured
1 | CCN(CC)Cc1cc(OC)c(OCCC2CCC3C4C(CCC23C)c2ccc(O)cc2C[C@H]4C)c(OC)c1 (some centres unmarked) | 5.44 | 
2 | C[C@@H]1Cc2cc(O)ccc2C2CCC3(C)C(CCOc4ccc(C=O)cc4Cl)CCC3C21 (some centres unmarked) | 5.00 | 
3 | CCN(CC)Cc1ccc(OC/C=C2\CCC3C4C(CCC23C)c2ccc(O)cc2C[C@H]4C)c(OC)c1 (some centres unmarked) | 5.82 | 
4 | COc1cc2c(cc1O)CC[C@@H]1[C@@H]2CC[C@]2(C)[C@@H](O)CC[C@@H]12 [2-methoxyestradiol, 2-Methoxyestradiol, reference compound] |  | HIF-1α protein expression, standard HIF-1 inhibitors [2]: did not find any effect; HIF-1α protein expression, standard HIF-1 inhibitors [3]: did not find any effect; estrogenic activity (alkaline phosphatase stimulation relative to estradiol at 10^−9 M) [4]: large amount of estrogenic activity
5 | COC(=O)/C=C/c1ccc(OC/C=C2\CCC3C4C(CCC23C)c2ccc(O)cc2C[C@H]4C)cc1 (some centres unmarked) | 5.28 | 
6 | CCN(CC)Cc1ccc(OCCC2CCC3C4C(CCC23C)c2ccc(O)cc2C[C@H]4C)c(OC)c1 (some centres unmarked) | 5.70 | 
7 | COc1cc(CN2CCCCC2)ccc1OCCC1CCC2C3C(CCC12C)c1ccc(O)cc1C[C@H]3C (some centres unmarked) | 6.22 | 
8 | COc1cc(CN2CCCC2)ccc1OCCC1CCC2C3C(CCC12C)c1ccc(O)cc1C[C@H]3C (some centres unmarked) | 5.92 | 
9 | OCc1ccc(-c2nn(Cc3ccccc3)c3ccccc23)o1 [YC-1, reference compound] |  | HIF-1α protein expression, standard HIF-1 inhibitors [2]: did not find that YC-1, another standard HIF-1 inhibitor, could reproducibly inhibit; HIF-1α protein expression, standard HIF-1 inhibitors [3]: did not find that YC-1, another standard HIF-1 inhibitor, could reproducibly inhibit
10 | CN(C)CCOC/C=C1\CCC2C3CCc4cc(O)ccc4C3CCC12C (centres unmarked) | 5.74 | 
11 | CCN(CC)Cc1ccc(OCCC2CCC3C4CCc5cc(O)ccc5C4CCC23C)c(OC)c1 (centres unmarked) | 5.70 | 
12 | CCN(CC)Cc1ccccc1OC/C=C1\CCC2C3C(CCC12C)c1ccc(O)cc1C[C@H]3C (some centres unmarked) | 5.33 | 
13 | C[C@@H]1Cc2cc(O)ccc2C2CCC3(C)C(CCOCCN(C)C)CCC3C21 (some centres unmarked) | 5.40 | 
14 | COc1cc(CO)ccc1OCCC1CCC2C3C(CCC12C)c1ccc(O)cc1C[C@H]3C (some centres unmarked) | 5.30 | 
